Laboratory results as given in ChEMBL document CHEMBL1134028, “1,2,5-Thiadiazole derivatives are potent and selective ligands at human 5-HT1A receptors” (Bioorg Med Chem Lett, 2001).

What was measured:
[1] = target: T1, 5-hydroxytryptamine receptor 1A (Homo sapiens, UniProt P08908); assay: Ability to displace [3H]8-OH-DPAT from CHO cells stably transfected with human 5-hydroxytryptamine 1A receptor; assay type: cell-based
T1 sequence (P08908 whole entry): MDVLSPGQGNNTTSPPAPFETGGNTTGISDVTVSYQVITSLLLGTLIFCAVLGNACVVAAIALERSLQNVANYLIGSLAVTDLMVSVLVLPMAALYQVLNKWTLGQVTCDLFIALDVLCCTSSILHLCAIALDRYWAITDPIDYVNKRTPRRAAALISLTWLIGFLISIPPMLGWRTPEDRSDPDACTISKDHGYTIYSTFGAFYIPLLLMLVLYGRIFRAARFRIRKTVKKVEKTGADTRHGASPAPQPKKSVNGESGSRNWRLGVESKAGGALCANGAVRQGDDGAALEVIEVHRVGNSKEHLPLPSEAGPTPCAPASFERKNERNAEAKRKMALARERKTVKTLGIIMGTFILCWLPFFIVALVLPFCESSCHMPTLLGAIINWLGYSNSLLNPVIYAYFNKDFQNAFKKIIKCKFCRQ

D(3) dopamine receptor = D(3) dopamine receptor (Homo sapiens, UniProt P35462); assay: Percent inhibition towards dopamine D3 receptor
Chain of D(3) dopamine receptor (P35462 whole entry): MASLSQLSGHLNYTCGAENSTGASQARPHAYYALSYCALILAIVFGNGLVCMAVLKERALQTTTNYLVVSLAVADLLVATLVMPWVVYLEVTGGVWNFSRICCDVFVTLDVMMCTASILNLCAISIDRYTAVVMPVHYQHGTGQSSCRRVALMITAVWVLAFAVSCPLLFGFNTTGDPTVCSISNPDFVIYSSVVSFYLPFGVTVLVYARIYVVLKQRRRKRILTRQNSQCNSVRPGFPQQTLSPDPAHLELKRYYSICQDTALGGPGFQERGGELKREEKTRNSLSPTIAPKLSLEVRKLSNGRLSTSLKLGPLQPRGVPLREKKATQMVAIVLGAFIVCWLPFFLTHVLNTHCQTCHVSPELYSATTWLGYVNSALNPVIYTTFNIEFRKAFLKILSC

D(4) dopamine receptor = target: T2, D(4) dopamine receptor (Homo sapiens, UniProt P21917); assay: Percent inhibition towards dopamine D4 receptor
T2 sequence (P21917 whole entry): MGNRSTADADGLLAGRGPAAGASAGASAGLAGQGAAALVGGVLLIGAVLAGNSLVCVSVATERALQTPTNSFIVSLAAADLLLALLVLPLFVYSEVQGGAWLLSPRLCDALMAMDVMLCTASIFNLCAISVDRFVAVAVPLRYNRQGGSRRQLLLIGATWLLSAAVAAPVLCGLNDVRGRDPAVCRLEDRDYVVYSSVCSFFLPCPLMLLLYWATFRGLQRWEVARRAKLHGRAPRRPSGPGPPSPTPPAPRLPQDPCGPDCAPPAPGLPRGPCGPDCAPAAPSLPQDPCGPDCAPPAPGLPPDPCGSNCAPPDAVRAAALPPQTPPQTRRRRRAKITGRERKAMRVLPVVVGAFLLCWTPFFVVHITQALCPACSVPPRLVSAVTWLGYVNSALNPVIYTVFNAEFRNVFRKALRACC

D(2) dopamine receptor = D(2) dopamine receptor (Rattus norvegicus, UniProt P61169); assay: Percent inhibition towards dopamine D2 receptor
Chain of D(2) dopamine receptor (P61169 whole entry): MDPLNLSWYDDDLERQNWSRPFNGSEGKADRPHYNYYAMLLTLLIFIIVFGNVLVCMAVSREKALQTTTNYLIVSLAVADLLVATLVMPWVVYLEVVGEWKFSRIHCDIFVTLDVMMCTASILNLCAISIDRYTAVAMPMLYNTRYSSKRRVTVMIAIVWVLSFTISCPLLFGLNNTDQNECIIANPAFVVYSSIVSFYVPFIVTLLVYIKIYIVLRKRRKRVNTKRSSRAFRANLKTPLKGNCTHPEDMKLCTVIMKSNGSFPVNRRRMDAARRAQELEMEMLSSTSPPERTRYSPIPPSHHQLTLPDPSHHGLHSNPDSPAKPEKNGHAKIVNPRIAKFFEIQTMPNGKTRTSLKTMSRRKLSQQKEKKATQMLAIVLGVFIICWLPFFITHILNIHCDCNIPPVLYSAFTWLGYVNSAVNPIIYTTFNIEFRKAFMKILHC

CHO [2] = assay: Inhibitory activity determined by the compound ability to reverse the forskolin-stimulated turnover of cAMP in CHO cells; assay type: functional, cell-based; details: Cricetulus griseus
CHO [3] = assay: Intrinsic activity determined by the compound ability to reverse the forskolin-stimulated turnover of cAMP in CHO cells; assay type: functional; details: Cricetulus griseus
[4] = target: D(2) dopamine receptor (Rattus norvegicus) (UniProt P61169); assay: Percent inhibition towards dopamine D2 receptor at 100 nM concentration
Chain of D(2) dopamine receptor (Rattus norvegicus) (P61169 whole entry): as above

[5] = target: Adrenergic receptor alpha-1 (Rattus norvegicus) (UniProt P15823+P23944+P43140); assay: Compound was tested for percent inhibition at Alpha-1 adrenergic receptor in rat at 100 nM concentration
[6] = target: T3, 5-hydroxytryptamine receptor 1A (Homo sapiens) (UniProt P08908); assay: Ability to displace [3H]-8-OH-DPAT from CHO cells stably transfected with human 5-hydroxytryptamine 1A receptor at a concentration of 1 uM; assay type: cell-based
T3 sequence (whole entry): T1 sequence (P08908 whole entry)

CHO [7] = assay: Effective concentration for intrinsic activity determined by the compound ability to reverse the forskolin-stimulated turnover of cAMP in CHO cells; details: Cricetulus griseus

SMILES | Ki [1] [nM] | IC50 (CHO [2]) [nM] | Emax (CHO [3]) [%] | inhibition [5] [%] | other results
COc1nsnc1N1CCN(C[C@@H](Cc2ccccc2)N(C)C(=O)N2CCOCC2)CC1 | – | – | – | – | inhibition [6]: 46%
O=C(N[C@@H](Cc1ccccc1)CN1CCN(c2nsnc2Cl)CC1)c1ccccn1 | – | – | – | – | inhibition [6]: 47%
COc1nsnc1N1CCN(C[C@@H](Cc2ccccc2)N(C)C(=O)c2ccccc2)CC1 | 9.9 | 6.4 | 0 | 15 | –
CN(C(=O)C1CCCCC1)[C@H](Cc1ccccc1)CN1CCN(c2nsnc2Cl)CC1 | – | 49.3 | – | 0 | –
O=C(N[C@@H](Cc1ccccc1)CN1CCN(c2nsnc2Cl)CC1)C1CCCCC1 | 0.8 | – | 93 | 17 | EC50 (CHO [7]): 4.6 nM

Continued, in another order:

Ki [1] [nM] | SMILES | IC50 (CHO [2]) [nM] | Emax (CHO [3]) [%] | inhibition [5] [%] | other results
3 | COc1nsnc1N1CCN(C[C@@H](Cc2cccnc2)NC(=O)C2(C)CCCCC2)CC1 | 113 | 0 | – | IC50 (D(3) dopamine receptor): 489 nM; IC50 (D(4) dopamine receptor): 1100 nM; IC50 (D(2) dopamine receptor): 3520 nM
1.5 | COc1nsnc1N1CCN(C[C@@H](Cc2ccccc2)N(C)C(=O)C2CCCCC2)CC1 | 72.7 | – | 0 | inhibition [4]: 11%
